From PubChem BioAssay (NCI)
Values joined by “and” are separate entries in the source; they are usually repeats but may differ in a detail not shown here. Equal entries are not always repeated.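 Exposure lasted 48 hours, with cells grown in 96-well plates and compounds tested at five concentrations. Here, GI50 denotes the concentration required for 50% inhibition of growth. TGI: concentration producing complete growth inhibition.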 Where a SMILES comes first, the peptide text is derived from it.

Test system: MDA-MB-468 breast
Assay: NCI-60 cell line screen, 48 h

| Structure (SMILES) | GI50 | TGI |
| --- | --- | --- |
| O=Cc1cn(Cc2ccccc2)c2ccccc12 | 174 nM | 469 nM |
| C#CC(F)(F)[C@]1(O)CC[C@H]2[C@@H]3CCC4=CC(=O)CCC4=C3[C@@H](c3ccc(C4CC4)cc3)C[C@@]21C | 121 nM and 265 nM | 438 nM and 1520 nM |
| Fc1ccc(-c2ncn(C3CCNCC3)c2-c2ccnc(Oc3cccc(C(F)(F)F)c3)n2)cc1 | 1570 nM | 5310 nM |
| CC(C)(C(=O)NCC(F)(F)C(F)(F)F)C(=O)N[C@@H]1C(=O)Nc2ccccc2-c2ccccc21 | 12700 nM | 73000 nM |
| O=S(=O)(Nc1cc(F)cc(F)c1)c1ccc(-c2cnc(C3CC3)o2)cc1 | 1370 nM | 17900 nM |
| O=C(Nc1ccccc1C(=O)N/N=C(\c1ccccc1)c1ccccn1)c1ccccc1 | 338 nM | 2380 nM |
| COc1ccc(/C=C(/C(=O)N2CCCCC2)c2cc(OC)c(OC)c(OC)c2)cc1 | 498 nM | > 100000 nM |
| CCC(C)C1NC(=O)C(CCCCN)NC(=O)C(CCCCN)NC(=O)C(CC(C)C)NC(=O)C(CCCCN)NC(=O)C(C(C)CC)NC(=O)C(C(C)C)NC(=O)C(C(C)CC)NC(=O)C(CCCCN)NC(=O)C(CCCCN)NC(=O)C(C)NC(=O)C(CCCCN)NC(=O)C(CC(C)C)NC1=O (stereo not given) (cyclo(AKKIVIKLKKILK); configuration not given here) | 564 nM | 2300 nM |
| C=C(C)[C@@H]1CC[C@]2(C(N)=O)CC[C@]3(C)[C@H](CC[C@@H]4[C@@]5(C)C/C(=C/c6cccnc6)C(=O)C(C)(C)[C@@H]5CC[C@]43C)[C@@H]12 | 3500 nM | 40500 nM |
| O=C1NC(=NCc2c(Cl)cccc2Cl)S/C1=C\c1ccc2ncccc2c1 | 6240 nM | > 25000 nM |
| O=C1C=CC2(NN=C(c3ccccc3)N2c2ccccc2)c2cccc(O)c21 (stereo not given) | 1920 nM | 9090 nM |
| Cc1cccc(-n2cnc3cc(C(=O)N4CCCCC4)ccc32)c1 | 18600 nM | > 100000 nM |
| COc1ccc2nc3c(n2c1)C(=O)C(=O)c1ccccc1-3 | 2180 nM | 5630 nM |
| CCCCCCCCCCCCCCCC(=O)Nc1ccn([C@@H]2O[C@H](CO)[C@@H](O)[C@@H]2C#N)c(=O)n1 | 48700 nM | > 100000 nM |
| COC(=O)N[C@H]1C=C[C@@H]2/C=C(C)/C=C/[C@@H](C)[C@H]([C@H](C)[C@H](O)[C@@H](C)NC(C)=O)OC(=O)/C=C/C=C(C)\C=C\[C@]2(C)C1 | 4.32 nM and 4.53 nM | > 45300 nM |
| CCNC(=O)N1CCc2c(Cl)c3c(c(OC)c2[C@@H]1[C@H]1OCc2c1ccc(OC)c2OC)OCCO3 | 2650 nM | > 100000 nM |
| COc1ccc(CCc2nc3cc(-c4c(C)noc4C)ccc3n2CCN2CCOCC2)cc1 | 8780 nM | > 100000 nM |
| O=S(=O)(Nc1ccc2ccccc2c1)N1CCCCC1 | 2810 nM | 10300 nM |

| Structure (SMILES) | GI50 | TGI |
| --- | --- | --- |
| Cn1cc(C2=C(n3ccc4ccccc43)C(=O)NC2=O)c2ccccc21 | > 25000 nM | > 25000 nM |
| COc1ccc(/C=C/C(=O)Nc2cc(/C=C\c3cc(OC)c(OC)c(OC)c3)cc(OC)c2OC)cc1OC | 1740 nM | 7520 nM |
| CCOc1ccccc1C(=O)/C=C/c1cc2ccccc2[nH]c1=O | 162 nM | 1630 nM |
| COc1cc(-c2cc(-c3nc4ccc(F)cc4[nH]3)[nH]n2)cc(OC)c1OC | 1560 nM | 9670 nM |
| CCCCCCCCn1ccc2cc(NC(=O)Cn3cc(CN4CCN(CC)CC4)nn3)ccc21 | 1530 nM | 3040 nM |
| CCCCCN1C(=O)/C(=c2\sc3n(c2=O)C2C(NN=3)N(CC)C(=O)N2CC)c2ccccc21 (stereo not given) | 369 nM | 2000 nM |
| COc1ccc(C(O)c2cc3c(N)c(C(=O)Nc4ccccc4)sc3nc2C)cc1 (stereo not given) | 29.8 nM | > 100000 nM |
| C#CC#CC#CC#CC#CC#CC#CC#CC[C@@H]1OC[C@H](COC(=O)O[C@@H](C(=O)O[C@H]2C[C@@]3(O)[C@@H](OC(=O)c4ccccc4)[C@@H]4[C@]5(OC(C)=O)CO[C@@H]5C[C@H](O)[C@@]4(C)C(=O)[C@H](OC(C)=O)C(=C2C)C3(C)C)[C@@H](NC(=O)c2ccccc2)c2ccccc2)O1 | 439 nM | 1590 nM |
| C#CCNCCCN1C(=O)c2ccc3c4c(ccc(c24)C1=O)C(=O)N(CCCNCC#C)C3=O | 129 nM | 308 nM |
| NS(=O)(=O)c1ccc(N=Nc2c(O)[nH]c3ccc(Cl)cc23)cc1 | > 20100 nM | > 25000 nM |
| Cn1cc(-c2csc(-c3c[nH]c4ccccc34)n2)c2cccnc21 | 915 nM | 4180 nM |
| COc1cc2nccc(Oc3ccc(NC(=O)C4(C(=O)Nc5ccc(F)cc5)CC4)cc3)c2cc1OC(=O)c1ccc(N)cc1 | 3990 nM | > 100000 nM |
| CC(=O)/C(=C\c1c(-c2ccccc2)[nH]c2ccccc12)S(C)(=O)=O | 1790 nM | 8100 nM |
| CCNCCNc1cc(-c2ccc(Cl)c(Cl)c2)c(C#N)c2nc3ccccc3n12 | 1140 nM | 2520 nM |
| COC(=O)[C@]12CC[C@@H](C)[C@H](C)[C@@H]1C1=CC[C@@H]3[C@@]4(C)C[C@@H](OC(C)=O)[C@H](O)[C@@](C)(CO)[C@@H]4[C@H](O)C[C@@]3(C)[C@]1(C)CC2 | 8550 nM | 22800 nM |
| Cn1cc(-c2nc(N)nnc2-c2c[nH]c3ccccc23)c2cc(Br)ccc21 | 342 nM | 2040 nM |
| CCCCCCC(O)(c1ccc(F)cc1)C(CN1CCOCC1)c1ccccc1 (stereo not given) | 4930 nM | 18600 nM |
